Data as given in patent publication US6733982B1, “Method for screening compounds for alpha1B adrenergic receptor antagonist and analgesic activity” (Syntex (U.S.A.) LLC, priority 1999, dated 2004).

What was measured:
[1] = tested on: neuropathic rats (chronic constriction injury); test: Cold allodynia response (cold bath assay) in neuropathic (chronic constriction injury) rats; format: in vivo, rat
Protocol: This experiment was conducted to evaluate the effects of 4-(2-benzofuran-7-yl-5-oxo-oxazol-4-ylidenemethyl)-N-phenyl-piperazine-1-carboxamidine hydrochloride, and similar or related compounds, on the cold allodynia response in neuropathic rats. The test apparatus and methods of behavioral testing is described in Gogas et al. (1997) Analgesia 3:111-118.
Male Sprague-Dawley rats (Harlan), 160-200 g, were surgically prepared to have a chronic constriction injury (CCl) as described above 6 days prior to testing. Rats were selected for the study according to the following criteria: 1) the average of two trials was less than or equal to 13 sec; and 2) there was consistency across the two trial scores. Animals were screened for hypersensitivy to cold on post-surgery days 4 through 10, and selected for inclusion in dose-response studies based on the criteria described above. The pre-dose screening values were used as the animals' baseline cold allodynia scores.
Selected rats were tested twice in the cold bath assay described above for a pre-dose baseline and randomly assigned to treatment groups and dosed at 0 (vehicle, 10 ml/kg, 0.5% CMC, 30, 100 or 300 μg/kg, i.p. After 1 hour and 3 hours post-dosing, rats were tested in the cold bath assay. For each rat, the assay was run once at 1 and 3 hours post-dose. The time to raise the rear leg was recorded in each trial. The maximal observing time in each trial was 20 seconds.
(§1) Male Sprague-Dawley rats (Harlan), 160-270 g, were surgically prepared to have a chronic constriction injury (CCl) as described above 5 days prior to testing. Rats were selected and tested as described in Example 3. Selected rats were dosed at 0 (vehicle, 10 mL/kg, deionized water), 30 or 300 μg/kg, i.p. After 20 min and 40 minutes post-dosing, rats were tested in the cold bath assay.
as §1, with “170-270” for “160-270”, “14” for “5”
(§2) Heat and cold allodynia responses can be evaluated as described below in rats having a chronic constriction injury (CCl). A unilateral mononeuropathy is produced in rats using the chronic constriction injury model described in Bennett et al. (1988) Pain 33:87-107.
(§3) CCl is produced in anesthetized rats as follows. The lateral aspect of each rat's hind limb is shaved and scrubbed with Nolvasan. Using aseptic techniques, an incision is made on the lateral aspect of the hind limb at the mid-thigh level. The biceps femoris is bluntly dissected to expose the sciatic nerve. On the right hind limb of each rat, four loosely tied ligatures (for example, Chromic gut 4.0; Ethicon, Johnson and Johnson, Somerville, N.J.) are made around the sciatic nerve approximately 1-2 mm apart. On the left side of each rat, an identical dissection is performed except that the sciatic nerve is not ligated (sham). The muscle is closed with a continuous suture pattern with, e.g., 4-0 Vicryl (Johnson and Johnson, Somerville, N.J.) and the overlying skin is closed with wound clips. The rats are ear-tagged for identification purposes and returned to animal housing.

[2] = target: T1, alpha1B adrenergic receptor (Homo sapiens, UniProt P35368); test: [3H]prazosin radioligand binding on membranes of alpha1 adrenergic receptor transfected CHO-K1 cells; settings: methods of Example 1: alpha1A, alpha1B and alpha1D transfected CHO-K1 cells
T1 construct: expressed in transfected cells; host or cells: CHO-K1
T1 sequence (P35368 1-520): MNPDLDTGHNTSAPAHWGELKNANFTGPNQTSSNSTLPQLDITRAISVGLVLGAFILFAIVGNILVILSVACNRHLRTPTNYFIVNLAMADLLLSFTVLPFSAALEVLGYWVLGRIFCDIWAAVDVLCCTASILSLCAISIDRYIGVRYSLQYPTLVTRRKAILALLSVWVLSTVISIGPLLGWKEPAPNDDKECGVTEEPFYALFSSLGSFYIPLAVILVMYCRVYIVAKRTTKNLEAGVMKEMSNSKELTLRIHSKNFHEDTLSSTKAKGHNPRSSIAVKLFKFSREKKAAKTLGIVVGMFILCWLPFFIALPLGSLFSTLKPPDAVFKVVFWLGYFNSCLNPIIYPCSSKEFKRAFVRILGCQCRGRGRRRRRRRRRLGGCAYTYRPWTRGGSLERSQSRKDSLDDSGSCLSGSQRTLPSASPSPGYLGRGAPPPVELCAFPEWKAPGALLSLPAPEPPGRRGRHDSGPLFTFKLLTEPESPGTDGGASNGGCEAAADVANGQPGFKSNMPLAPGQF
Protocol: Alpha1A, alpha1B and Alpha1D adrenergic receptor transfected CHO-K1 cells, prepared using the methods described in Chang et al. (1998) FEBS Lett. 422:279-283, were grown to confluence in T-162 tissue culture flasks in Ham's F-12 culture medium supplemented with 10% fetal bovine serum, geneticin (150 μg/ml) and streptomycin: penicillin (30 μg/ml:30 μg/ml) at 37° C. in 7% CO2. Cells were harvested by incubating with phosphate-buffered saline (PBS) containing 30 μM EDTA for 5-10 min at 37° C. Cells were pelleted by centrifuging at 500×g for 5 min, the pelleted cells were homogenized (Polytron homogenizer) in 10 vols (w/v) of 50 mM Tris, 1 mM EDTA, (homogenisation buffer, pH 7.4 at 4° C.). The homogenate was centrifuged at 45,000×g for 20 min. […]
The membranes were thawed at room temperature and diluted in assay buffer (50 mM Tris, pH 7.4) at 37° C. and homogenized using the Polytron tissue disrupter. […] Scintillation cocktail was added to the filter plates and bound radioligand determined by liquid scintillation spectrophotometry.
For each experiment, total binding (in the absence of any test or reference compounds) and non specific binding (10 μM phentolamine) were determined. […] If the radioligand KD was known, the inhibition dissociation constant (Ki) of each ligand was determined according to the method of Cheng et al. (1973) Biochem. Pharmacol. 22:3099-3108).

[3] = tested on: neuropathic rats (chronic constriction injury); test: Pain response to radiant heat in neuropathic (chronic constriction injury) rats; format: in vivo, rat; settings: CCI rats
Protocol: Male Sprague-Dawley rats (Harlan), 240-300 g, were surgically prepared to have a chronic constriction injury (CCl) as described above 13-15 days prior to testing. Rats were selected for the study according to the following criteria: ligated leg (LL)latency−4 to 14 seconds; sham leg (LS) latency−6 to 18 seconds; difference (LDiff=LL−LS)−greater than 1.5 seconds. Selected rats were randomly assigned to treatment groups and dosed at 0 (vehicle, 10 ml/kg, 0.5% CMC, 30, 60, 100 or 300 μg/kg, i.p. After 45 minutes post-dosing, rats were placed under inverted plastic cages on an elevated glass platform. Following 15 minutes of acclimatization, a radiant heat source, e.g., light was placed below the glass and illuminated in order for the glass to reach a temperature of 80-82° F. For each rat, four trials of each of the following were performed: shone light on the left hind paw (sham) and recorded the latency when the paw was withdrawn; shone light on the right hind paw (ligated) and recorded the latency when the paw was withdrawn. Five minute intervals were allowed between trials. Hind paws were examined for redness and blistering after each test.
Male Sprague-Dawley rats (Harlan), 240-300 g, were surgically prepared to have a CCl as described above 19-21 days prior to testing. Rats were selected for the study according to the following described in Example 2. Selected rats were randomly assigned to treatment groups and dosed with 4-(2-naphthalen-1-yl-5-oxo-oxazol-4-ylidenemethyl)-N-phenyl-piperazine-1-carboxamidine at 0 (vehicle, 10 mL/kg deionized water, 30, 60, 100, 300 or 1000 μg/kg, i.p. After 1 hour post-dosing, rats were tested as described in Example 2.
as §2, §3

[4] = 300 μg/kg i.p., 40 min post-dose
[5] = 60 μg/kg i.p., about 1 hour post-dosing
[6] = 100 μg/kg i.p., about 1 hour post-dosing
[7] = 300 μg/kg i.p., about 1 hour post-dosing
[8] = 100 μg/kg i.p., 1 hour post-dose, p<0.01
[9] = 300 μg/kg i.p., 1 hour post-dose, p<0.01
[10] = 300 μg/kg i.p., 3 hours post-dose, p<0.05

SMILES | cold allodynia: change in latency from pre-dose compared to vehicle group [1, 4] | cold allodynia: latency times compared to vehicle control [1, 4] | identification as selective alpha1B adrenergic receptor antagonist [2] | effect in the radiant heat assay (paw withdrawal latency) [3, 5] | effect in the radiant heat assay (paw withdrawal latency) [3, 6] | effect in the radiant heat assay (paw withdrawal latency) [3, 7] | cold allodynia: actual latency times compared to vehicle [1, 8] | cold allodynia: changes from pre-dose compared to vehicle [1, 8] | cold allodynia: actual latency times compared to vehicle [1, 9] | cold allodynia: changes from pre-dose compared to vehicle [1, 9] | cold allodynia: actual latency times compared to vehicle [1, 10] | cold allodynia: changes from pre-dose compared to vehicle [1, 10] | effect in the radiant heat assay (paw withdrawal latency) ([3]; 1000 μg/kg i.p., 1 hour post-dosing) | cold allodynia: change in latency from pre-dose compared to vehicle group ([1]; 30 μg/kg i.p., 20 min post-dose) | cold allodynia: change in latency from pre-dose compared to vehicle group ([1]; 300 μg/kg i.p., 20 min post-dose) | cold allodynia: latency times compared to pre-dose [1, 4] | cold allodynia: latency times compared to pre-dose ([1]; 20 min post-dose, i.p. (doses tested 30 or 300 μg/kg; dose not given))
Cc1c[nH]c(=O)n(CCCN2CCN(c3ccccc3OCC(F)(F)F)CC2)c1=O [3-(3-{4-[2-(2,2,2-trifluoroethoxy)phenyl]-piperazin-1-yl}propyl)-5-methyl-2,4(1H,3H)-pyrimidinedione, reference compound] | significant changes | significant increase in latency times | – | – | – | – | – | – | – | – | – | – | – | – | – | – | –
Cl.N=C(Nc1ccccc1)N1CCN(C=C2N=C(c3cccc4ccoc34)OC2=O)CC1 [4-(2-benzofuran-7-yl-5-oxo-oxazol-4-ylidenemethyl)-N-phenyl-piperazine-1-carboxamidine hydrochloride] | – | – | identified as selective alpha1B adrenergic receptor antagonists | significant effect | significant effect | significant effect | significantly higher than vehicle | significantly higher than vehicle | significantly higher than vehicle | significantly higher than vehicle | significantly higher than vehicle | significantly higher than vehicle | – | – | – | – | –
N=C(Nc1ccccc1)N1CCN(C=C2N=C(c3cccc4ccccc34)OC2=O)CC1 [4-(2-naphthalen-1-yl-5-oxo-oxazol-4-ylidenemethyl)-N-phenyl-piperazine-1-carboxamidine] | significant change from pre-dose | – | identified as a selective alpha1B adrenergic receptor antagonist | significant effect | significant effect | significant effect | – | – | – | – | – | – | significant effect | significant increase in latency from pre-dose | significant increase in latency from pre-dose | significant increase in latency | significant change in latency times
